In US3983105A, “Penicillins” (Bayer Aktiengesellschaft, priority 1971, dated 1976):

Experiments:
Assay type in all cases: cell-based
[1] = tested on: Streptococcus faecalis; assay: MIC, test tube serial dilution, Streptococcus faecalis
[2] = tested on: Pseudomonas aeruginosa; assay: MIC, test tube serial dilution, Pseudomonas aeruginosa
[3] = tested on: Proteus vulgaris; assay: MIC, test tube serial dilution, Proteus vulgaris
[4] = tested on: Escherichia coli; assay: MIC, test tube serial dilution, Escherichia coli
[5] = tested on: Klebsiella-Aerobacter; assay: MIC, test tube serial dilution, Klebsiella-Aerobacter
[6] = tested on: Staphylococcus aureus; assay: MIC, test tube serial dilution, Staphylococcus aureus
[7] = tested on: Proteus morganii; assay: MIC, test tube serial dilution, Proteus morganii
[8] = strain 1756 (BRL 1 756), 24 hours, 37°C

| MIC ([1]; Table 3, ATCC 9790) [U/ml] | MIC ([2]; Table 3, strain F 41) [U/ml] | MIC ([2]; Table 3, strain Walter) [U/ml] | MIC ([3]; Table 3, strain 1017) [U/ml] | MIC ([4]; Table 3, strain 14) [U/ml] | MIC ([4]; Table 3, strain 183/58) [U/ml] | MIC ([4]; Table 3, strain A 261) [U/ml] | MIC ([4]; Table 3, strain C 165) [U/ml] | MIC ([5]; Table 3, strain 63) [U/ml] | MIC ([5]; Table 3, strain K 10) [U/ml] | MIC ([6]; Table 3, strain 133) [U/ml] | MIC ([6]; Table 3, strain 1756E) | MIC ([7]; Table 3, strain 932) [U/ml] | Structure (SMILES) | MIC ([4]; strain 183/58, 24 hours, 37°C) [U/ml] | MIC ([4]; strain A 261, 24 hours, 37°C) [U/ml] | MIC [6, 8] [U/ml] | MIC ([2]; strain Bonn, 24 hours, 37°C) [U/ml] | further results |
| --- | --- | --- | --- | --- | --- | --- | --- | --- | --- | --- | --- | --- | --- | --- | --- | --- | --- | --- |
| 16 | 64 | 32 | 8 | 4 | 8 | > 256 | 8 | 32 | 32 | < 1 | 64 U/ml | 32 | COC(=O)N1CCN(C(=O)NC(C(=O)N[C@@H]2C(=O)N3[C@@H]2SC(C)(C)[C@@H]3C(=O)O)c2cccs2)C1=O (stereo partly drawn) [Penicillin No. 20 (Table 3), Sodium D,L-α-[(3-methoxycarbonyl-imidazolidin-2-on-1-yl)-carbonylamino]-α-thienyl(2)-methylpenicillin] |  |  |  |  |  |
| 64 | 128 | 64 | 8 | < 1 | 4 | 256 | 4 | 128 | 32 | < 1 | 64 U/ml | 8 | CC1(C)S[C@@H]2[C@H](NC(=O)C(NC(=O)N3CCN(S(C)(=O)=O)C3=O)c3ccc(Cl)cc3)C(=O)N2[C@H]1C(=O)O (stereo partly drawn) [Penicillin No. 2 (Table 3), Sodium D,L-α-[(3-methylsulphonyl-imidazolidin-2-on-1-yl)-carbonylamino]-4-chlorobenzylpenicillin] |  |  |  |  |  |
|  |  |  |  |  |  |  |  |  |  |  |  |  | CCS(=O)(=O)N1CCN(C(=O)N[C@@H](C(=O)N[C@@H]2C(=O)N3[C@@H]2SC(C)(C)[C@@H]3C(=O)O)c2ccccc2)C1=O [Example 24, Sodium D(-)-α-[(3-ethanesulphonyl-imidazolidin-2-on-1-yl)-carbonylamino]-benzylpenicillin] | < 1 | 512 | 32 |  | MIC ([1]; ATCC 9790, 24 hours, 37°C): 16 U/ml; MIC ([2]; in µg/mL (unit assumed)): 32; MIC ([3]; unit assumed): 2 µg/mL; MIC ([5]; in µg/mL (unit assumed)): 8; MIC ([7]; unit assumed): 2 µg/mL |
| 256 | ≥ 256 | ≥ 256 | 256 | 256 | 256 | ≥ 256 | ≥ 256 | ≥ 256 | ≥ 256 | 4 | ≥ 256 U/ml | 32 | CC1(C)S[C@@H]2[C@H](NC(=O)C(NC(=O)N3CCN(S(C)(=O)=O)C3=O)c3c(Cl)cccc3Cl)C(=O)N2[C@H]1C(=O)O (stereo partly drawn) [Penicillin No. 5 (Table 3), Sodium D,L-α-[(3-methylsulphonyl-imidazolidin-2-on-1-yl)-carbonylamino]-2,6-dichloro-benzylpenicillin] |  |  |  |  |  |
|  |  |  |  |  |  |  |  |  |  |  |  |  | CC1(C)S[C@@H]2[C@H](NC(=O)[C@H](NC(=O)N3CCN(C(=O)N4CCCCC4)C3=O)c3ccccc3)C(=O)N2[C@H]1C(=O)O [Example 9, Sodium D(-)-α-[(3-piperdyl-N-carbonyl-imidazolidin-2-on-1-yl)-carbonylamino]-benzylpenicillin] | 4 | > 256 | > 256 | 64 | MIC ([1]; unit assumed): 128 µg/mL; MIC ([2]; in µg/mL (unit assumed)): 32; MIC ([3]; unit assumed): 32 µg/mL; MIC ([5]; in µg/mL (unit assumed)): 8; MIC ([7]; unit assumed): 32 µg/mL |
|  |  |  |  |  |  |  |  |  |  |  |  |  | CN(C)C(=O)N1CCN(C(=O)N[C@@H](C(=O)N[C@@H]2C(=O)N3[C@@H]2SC(C)(C)[C@@H]3C(=O)O)c2ccccc2)C1=O [Example 6, Sodium D(-)-α-[(3-dimethylaminocarbonyl-imidazolidin-2-on-1-yl)-carbonylamino]-benzylpenicillin] | 4 | > 256 | 64 | 32 | MIC ([1]; ATCC 9790, 24 hours, 37°C): 32 U/ml; MIC ([2]; strain Walter, 24 hours, 37°C): 32 U/ml; MIC ([3]; strain 1017, 24 hours, 37°C): 16 U/ml; MIC ([5]; strain 63, 24 hours, 37°C): 32 U/ml; MIC ([5]; strain K 10, 24 hours, 37°C): 16 U/ml; MIC ([7]; strain 932, 24 hours, 37°C): 64 U/ml |
| 128 | 128 | 128 | 16 | 4 | 4 | > 256 | 8 | 64 | 32 | 4 | 256 U/ml | 128 | CCS(=O)(=O)N1CCN(C(=O)NC(C(=O)N[C@@H]2C(=O)N3[C@@H]2SC(C)(C)[C@@H]3C(=O)O)c2ccc(Cl)cc2)C1=O (stereo partly drawn) [Penicillin No. 13 (Table 3), Sodium α-[(3-ethylsulphonyl-imidazolidin-2-on-1-yl)-carbonylamino]-p-chlorobenzylpenicillin] |  |  |  |  |  |
|  |  |  |  |  |  |  |  |  |  |  |  |  | CC1(C)S[C@@H]2[C@H](NC(=O)[C@H](NC(=O)NC(=O)NS(C)(=O)=O)c3ccccc3)C(=O)N2[C@H]1C(=O)O [Example 31, Sodium D(-)-α-(5 -mesyl-biureido)-benzylpenicillin] | 128 | > 256 | 64 | 256 | MIC ([1]; unit assumed): 32 µg/mL; MIC ([2]; strain Walter, 24 hours, 37°C): 256 U/ml; MIC ([3]; strain 1017, 24 hours, 37°C): > 256 U/ml; MIC ([5]; strain 63, 24 hours, 37°C): > 256 U/ml; MIC ([5]; strain K 10, 24 hours, 37°C): > 256 U/ml; MIC ([7]; strain 932, 24 hours, 37°C): 64 U/ml |
| 64 | 64 | 64 | 8 | 2 | 8 | 512 | 8 | 128 | 32 | 2 | 64 U/ml | 8 | CC(=O)N1CCN(C(=O)NC(C(=O)N[C@@H]2C(=O)N3[C@@H]2SC(C)(C)[C@@H]3C(=O)O)c2cccs2)C1=O (stereo partly shown) [Penicillin No. 9 (Table 3)] |  |  |  |  |  |
|  |  |  |  |  |  |  |  |  |  |  |  |  | CCOC(=O)NS(=O)(=O)N1CCN(C(=O)N[C@@H](C(=O)N[C@@H]2C(=O)N3[C@@H]2SC(C)(C)[C@@H]3C(=O)O)c2ccccc2)C1=O [Example 22, Sodium D(-)-α-{[3-(ethoxy-carbonyl-amino-sulphonyl)imidazolidin-2-on-1-yl]-carbonylamino}-benzylpenicillin] | 8 | > 256 | 128 | 16 | MIC ([1]; unit assumed): 32 µg/mL; MIC ([2]; in µg/mL (unit assumed)): 32; MIC ([3]; strain 1017, 24 hours, 37°C): 16 U/ml; MIC ([5]; in µg/mL (unit assumed)): 32; MIC ([5]; strain 63, 24 hours, 37°C): 64 U/ml; MIC ([7]; unit assumed): 128 µg/mL |
|  |  |  |  |  |  |  |  |  |  |  |  |  | CN(C(=O)N[C@@H](C(=O)N[C@@H]1C(=O)N2[C@@H]1SC(C)(C)[C@@H]2C(=O)O)c1ccccc1)C(=O)N1CCCS1(=O)=O [Example 29, Sodium D(-)-α-{3-[N-(1,1-dioxo-isothiazolidin-2-yl)-carbonyl]-3-methyl}-ureido-benzylpenicillin] | 32 | > 256 | 256 | 16 | MIC ([1]; ATCC 9790, 24 hours, 37°C): 16 U/ml; MIC ([2]; strain Walter, 24 hours, 37°C): 16 U/ml; MIC ([3]; strain 1017, 24 hours, 37°C): 64 U/ml; MIC ([4]; strain C 165, 24 hours, 37°C): 16 U/ml; MIC ([5]; strain 63, 24 hours, 37°C): 64 U/ml; MIC ([5]; strain K 10, 24 hours, 37°C): 64 U/ml; MIC ([7]; unit assumed): 128 µg/mL |
| 128 | 256 | 128 | 32 | 8 | 16 | > 512 | 32 | 256 | 128 | 2 | 128 U/ml | 64 | CC(=O)N1CCN(C(=O)N[C@H](C(=O)N[C@@H]2C(=O)N3[C@@H]2SC(C)(C)[C@@H]3C(=O)O)c2ccccc2)C1=O [Penicillin No. 6 (Table 3), Sodium L(+)-α-[(3-acetyl-imidazolidin-2-on-1-yl)-carbonylamino]-benzylpenicillin] |  |  |  |  |  |

| Structure (SMILES) | MIC ([1]; Table 3, ATCC 9790) [U/ml] | MIC ([2]; Table 3, strain F 41) [U/ml] | MIC ([2]; Table 3, strain Walter) [U/ml] | MIC ([3]; Table 3, strain 1017) [U/ml] | MIC ([4]; Table 3, strain 14) [U/ml] | MIC ([4]; Table 3, strain 183/58) [U/ml] | MIC ([4]; Table 3, strain A 261) [U/ml] | MIC ([4]; Table 3, strain C 165) [U/ml] | MIC ([5]; Table 3, strain 63) [U/ml] | MIC ([5]; Table 3, strain K 10) [U/ml] | MIC ([6]; Table 3, strain 133) [U/ml] | MIC ([6]; Table 3, strain 1756E) | MIC ([7]; Table 3, strain 932) [U/ml] | MIC ([4]; strain 183/58, 24 hours, 37°C) [U/ml] | MIC ([4]; strain A 261, 24 hours, 37°C) [U/ml] | MIC [6, 8] [U/ml] | MIC ([2]; strain Bonn, 24 hours, 37°C) [U/ml] | further results |
| --- | --- | --- | --- | --- | --- | --- | --- | --- | --- | --- | --- | --- | --- | --- | --- | --- | --- | --- |
| CC(=O)N1CCN(C(=O)NC(C(=O)N[C@@H]2C(=O)N3[C@@H]2SC(C)(C)[C@@H]3C(=O)O)c2ccc(C)cc2)C1=O (stereo partly drawn) [Penicillin No. 8 (Table 3), Sodium D,L-α-[(3-acetyl-imidazolidin-2-on1-yl)-carbonylamino]-4-methyl-benzylpenicillin] | 64 | 128 | 64 |  | 2 | 8 | 512 | 8 | 128 | 32 |  | ~ 64 U/ml | 32 |  |  |  |  | MIC ([3]; unit assumed): 16 µg/mL |
| COC(=O)N1CCN(C(=O)NC(C(=O)N[C@@H]2C(=O)N3[C@@H]2SC(C)(C)[C@@H]3C(=O)O)c2ccc(Cl)cc2)C1=O (stereo partly drawn) [Penicillin No. 19 (Table 3), Sodium D,L-α-[(3-methoxycarbonyl-imidazolidin-2-on-1-yl)-carbonylamino]-4-chlorobenzylpenicillin] |  | 64 | 64 | 32 | 4 | 16 | > 256 | 8 | 4 | 32 |  | 128 U/ml | 4 |  |  |  |  | MIC ([1]; unit assumed): 32 µg/mL |
